Data taken from patent US20100190686A1, “NOVEL SECRETED PROTEINS OF ADIPOCYTES FOR DIAGNOSTIC PURPOSES” (The University of Georgia Research Foundation, priority 2007, published 2010).

Key:
3T3-L1 adipocytes = experiment: O-GlcNAc levels by Western blot (RL-2 antibody) of whole-cell extracts, mouse immortalized adipocytes; type: cell-based; settings: PUGNAc 100 μM vs low glucose (LG), FIG. 1
Procedure: 3T3s cell lines: 3T3-L1 and -F442A fibroblasts were maintained and differentiated on 10 cm plates essentially as previously described^11,25. Briefly, two days after the cells reached confluence, cells were induced to differentiate with high ([…], 3T3-L1) or low (3T3-F442A) glucose ([…]) DMEM containing 10% fetal bovine serum (3T3-L1) or 10% calf serum (3T3-F442A) via addition of 0.5 mM (115 μg/mL) 3-isobutyl-1-methyxanthine (MIX, Sigma), 1 μM (390 ng/mL) dexamethasone (Sigma), and 175 nM (1 μg/mL) recombinant insulin (human, Roche). After 48 hrs (day 2), the medium was replaced with high (3T3-L1) or low (3T3-F442A) glucose DMEM plus 10% FBS and supplemented with 1 μg/mL insulin for an additional 48 hrs. After 96 hrs (day 4), cells were maintained in appropriate medium depending on the condition being examined.
On the designated days (day 4 for 3T3-L1, day 5 for 3T3-F442A, and day 9 for rat primary adipocytes), adipocytes were induced with a combined treatment of low or high glucose containing 10% FBS, with or without insulin (100 nM) and PUGNAc (100 μM, TRC Inc.) according to the experimental conditions described in the results. After 24 hrs incubation, the medium was removed and the cells were washed five times with low or high glucose serum-free DMEM without antibiotics and vitamins and incubated with the last rinse for 15 min. […]

rat primary adipocytes [1] = experiment: Quantitative LC-MS/MS and 2D-LC-MS/MS analysis of the secreted proteome of primary rat adipocytes; type: cell-based
From the text: (§1) Rat Primary cell culture: inguinal and retroperitoneal fat pads were removed aseptically from male Sprague-Dawley rats (Harlan Industries, Indianapolis, Ind.) and primary preadipocytes were isolated as described in detail previously^26,27. After additional washing and centrifugation steps, the preadipocyte pellet was resuspended in plating medium (high glucose DMEM, antibiotics: PS, 10% FBS) and seeded at an average density of 1.35×10^4 cells/cm^2 for inguinal and 1.63×10^3 cells/cm^2 for retroperitoneal on 10 cm dishes for the differentiation. Primary cells were maintained in a humidified atmosphere containing 5% CO2 in air at 37° C. and cultured to confluence, changing the plating medium every 2 days. After 2 days of confluence, referred to as day 0, the medium was replaced with differentiation medium (high glucose DMEM containing antibiotics and 10% FBS, 0.25 mM MIX, 0.1 μM dexamethasone, and 17 nM insulin) and at day 2, an additional 17 nM of insulin was administered with the plating medium for an additional 48 hrs incubation. The cells were maintained in low glucose DMEM containing 10% FBS and treatments (see below) until harvest.
On the designated days (day 4 for 3T3-L1, day 5 for 3T3-F442A, and day 9 for rat primary adipocytes), adipocytes were induced with a combined treatment of low or high glucose containing 10% FBS, with or without insulin (100 nM) and PUGNAc (100 μM, TRC Inc.) according to the experimental conditions described in the results. After 24 hrs incubation, the medium was removed and the cells were washed five times with low or high glucose serum-free DMEM without antibiotics and vitamins and incubated with the last rinse for 15 min. After the final wash was removed, serum-free media supplemented with insulin (1 nM) or PUGNAc (100 μM) was added and cells were incubated for 16 hrs.
After incubation, the conditioned media were harvested with extreme care and then centrifuged once at 1,800 rpm at 4° C. for 7 min. The supernatants were filtered using 1 μm syringe filters (PALL). The samples were then collected in centrifuge tubes and centrifuged again at 30,000×G at 4° C. for 30 min. The samples were then transferred to an equilibrated spin column (Centriprep YM-3, Amicon, Millipore) and buffer-exchanged at 2,800 G and 4° C. into 40 mM ammonium bicarbonate (NH4HCO3) plus 1 mM DTT and concentrated. The concentrated samples were denatured with 1 M urea, reduced with 10 mM DTT for 1 hr at 56° C., carboxyamidomethylated with 55 mM iodoacetamide in the dark for 45 min, and then digested with 5 μg trypsin (Promega) in 40 mM NH4HCO3 overnight at 37° C. After digestion, the peptides were acidified with 200 μl of 1% trifluoroacetic acid (TFA). Desalting was subsequently performed with C18 spin columns (Vydac Silica C18, The Nest Group, Inc.), and the resulting peptides were dried down in a Speed Vac and stored at −20° C. until analyzed. For the subset of samples to be analyzed for N-linked glycosylation, peptides were resuspended in 19 μl ^18O-water and 1 μl of N-glycanase (PNGaseF, Prozyme) and allowed to incubate for 18 hours at 37° C. Peptides were dried back down and resuspended in 50 μl of 40 mM NH4HCO3 with 1 μg of trypsin, to remove any possible C-terminal incorporation of ^18O from residual trypsin activity^28, for 4 hours and then dried down and stored at −20° C. until analyzed.
The peptides were resuspended with 78 μl of mobile phase A (0.1% formic acid, FA, in water) and 2 μl of mobile phase B (80% acetonitrile, ACN, and 0.1% formic acid in water) and filtered with 0.2 μm filters (Nanosep, PALL). The samples were loaded off-line onto a nanospray tapered capillary column/emitter (360×75×15 μm, PicoFrit, New Objective) self-packed with C18 reverse-phase (RP) resin (8.5 cm, Waters) in a Nitrogen pressure bomb for 10 min at 1,000 p.s.i. (˜5 ul load) and then separated via a 160-min linear gradient of increasing mobile phase B at a flow rate of ˜200 nl/min directly into the mass spectrometer. […]

adipocytes = settings: elevation of O-GlcNAc levels with PUGNAc; previously shown (ref 11); cited from earlier work
rat primary adipocytes [2] = experiment: O-GlcNAc levels by Western blot (RL-2 antibody) of whole-cell extracts, rat primary adipocytes; type: cell-based; settings: PUGNAc 100 μM vs low glucose (LG), FIG. 1
From the text: as §1, with “harvest. […]” for “harvest.”

[3] = type 2 diabetes, randomized controlled trial, cited from earlier work
[4] = PUGNAc treatment vs insulin responsive (LG) condition, same direction with HG+insulin, Table 5

With CC(=O)N[C@H]1/C(=N/OC(=O)Nc2ccccc2)O[C@H](CO)[C@@H](O)[C@@H]1O [PUGNAc] the O-GlcNAc levels (3T3-L1 adipocytes) was “elevate O-GlcNAc levels significantly”, the “secretion of serine protease inhibitor 2C (reconstructed ion chromatogram of a peptide)” value (rat primary adipocytes [1]; LG+PUG vs LG (normalized to 1.00), two biological replicates, FIG. 4A) was “upregulation” and the “secretion of tetranectin (reconstructed ion chromatogram of a peptide)” value (rat primary adipocytes [1]; LG+PUG vs LG (normalized to 1.00), two biological replicates, FIG. 4B) was “upregulation”. For the same molecule, the “secretion of cholesterol-binding protein NPC2” value (rat primary adipocytes [1]; PUGNAc treatment vs insulin responsive (LG) condition, both insulin resistance conditions) was “upregulated”, the “secretion of GP-39” value (rat primary adipocytes [1]; [4]) was “upregulation” and the secretion of ceruloplasmin (rat primary adipocytes [1]; [4]) was “upregulation”. The “secretion of fibulin-2” value (rat primary adipocytes [1]; [4]) was “downregulated”, the “secretion of lipoprotein lipase” value (rat primary adipocytes [1]; [4]) was “upregulation” and the “secretion of protein-S” value (rat primary adipocytes [1]; [4]) was “upregulation”. The “secretion of slit homolog 3” value (rat primary adipocytes [1]; [4]) was “downregulated”, the secretion of spondin (rat primary adipocytes [1]; [4]) was “upregulation” and the “induction of insulin resistance” value (adipocytes) was “induces insulin resistance”. The O-GlcNAc levels (rat primary adipocytes [2]) was “elevate O-GlcNAc levels significantly”.

In the case of CN(C)C(=N)N=C(N)N [metformin], the “cumulative incidence of monotherapy failure at 5 years” value ([3]; 5 years) is given as 21%.

For CN(CCOc1ccc(CC2SC(=O)NC2=O)cc1)c1ccccn1 (stereo not drawn) [rosiglitazone], the “weight gain and edema” value ([3]; compared with metformin and glyburide) is given as “more weight gain and edema”.
